# Data reported in PubChem BioAssay (NCI).
#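 How tested: cells in 96-well plates exposed to compound for 48 hours at five concentrations. The concentration for 50% growth inhibition is given as GI50. Definition used: TGI = concentration required for complete inhibition of growth.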
# Experiments:
# Experiment in all cases: inhibition of tumour cell growth, NCI panel, 48 h
# [1] = tested on: KM12 colon
# [2] = tested on: RPMI-8226 leukemia
# [3] = tested on: OVCAR-5 ovarian
# [4] = tested on: U251 CNS
# [5] = tested on: UACC-62 melanoma
# [6] = tested on: UO-31 renal
# [7] = tested on: A498 renal
# [8] = tested on: COLO 205 colon
# [9] = tested on: M14 melanoma
# [10] = tested on: NCI/ADR-RES ovarian
SMILES,GI50 [1],TGI [1],GI50 [2],TGI [2],GI50 [3],TGI [3],GI50 [4],TGI [4],GI50 [5],TGI [5],GI50 [6],TGI [6],GI50 [7],TGI [7],GI50 [8],TGI [8],GI50 [9],TGI [9],GI50 [10],TGI [10]
C#CCNC(=O)CC[C@@H](C)[C@H]1CC[C@H]2[C@@H]3CC[C@@H]4CC(=O)CC[C@]4(C)[C@H]3CC[C@]12C,18.8 µM,70.2 µM,1.82 µM,19.1 µM,22.1 µM,47.1 µM,15.8 µM,39.4 µM,9.02 µM,28.6 µM,0.192 µM,0.424 µM,25 µM,> 100 µM,15.7 µM,32.5 µM,14.6 µM,37.2 µM,16.9 µM,45.3 µM
Cn1c(=O)cc(Nc2ccc(N)cc2)[nH]c1=O,–,> 100 µM,–,> 100 µM,–,> 100 µM,–,> 100 µM,–,> 100 µM,–,> 100 µM,–,> 100 µM,–,> 100 µM,–,> 100 µM,–,> 100 µM
CC(C)=CCc1cc(/C=C/C(=O)O)cc(CC=C(C)C)c1O,–,> 100 µM,–,> 100 µM,–,> 100 µM,–,> 100 µM,–,> 100 µM,–,> 100 µM,–,> 100 µM,–,> 100 µM,–,> 100 µM,–,> 100 µM
COc1cc(C(c2ccc3c(c2)OCO3)C2SCCCS2)cc(OC)c1OC (stereo not drawn),–,26 µM,–,7.77 µM,–,66.2 µM,–,21.5 µM,–,28.2 µM,–,> 100 µM,–,5.11 µM,–,3.08 µM,–,95.5 µM,–,6.11 µM
CN1CCN(c2n[nH]c(=O)c3c2nnn3C2CCCCC2)CC1,–,> 100 µM,–,> 100 µM,–,> 100 µM,–,> 100 µM,–,> 100 µM,–,> 100 µM,–,> 100 µM,–,> 100 µM,–,> 100 µM,–,> 100 µM
Nc1ncnc2c1ccn2-c1cccc(NC(=O)c2ccc(N3CCOCC3)c(C(F)(F)F)c2)c1,2.69 µM,10.4 µM,1.39 µM,4.04 µM,3 µM,21.1 µM,2.41 µM,6.44 µM,1.99 µM,5.78 µM,2.8 µM,6.73 µM,3.06 µM,12.8 µM,3.79 µM,15.1 µM,3.33 µM,10.6 µM,2.93 µM,23.4 µM
CC(C)C(/C=C/c1ccc(Cl)cc1)=N\NC(=O)N/N=C(/C=C/c1ccc(Cl)cc1)C(C)C,–,> 100 µM,–,> 100 µM,–,> 100 µM,–,30.6 µM,–,> 100 µM,–,> 100 µM,–,33.9 µM,–,> 100 µM,–,60 µM,–,78.9 µM
CC(=O)OCC1OC(O[C@H]2C=C[C@@H](C(=O)OCc3ccccc3)n3c(=O)n(-c4ccccc4)c(=O)n32)C(OC(C)=O)C(OC(C)=O)C1OC(C)=O (stereo partly drawn),–,12.2 µM,–,3.31 µM,–,4.75 µM,–,4.81 µM,–,3.18 µM,–,2.93 µM,–,5.33 µM,–,8.75 µM,–,2.95 µM,–,> 100 µM
CC(C)c1c(O[Si](C(C)C)(C(C)C)C(C)C)cc2c(c1O)CC[C@H]1C(C)(C)CCC[C@]21C,–,> 100 µM,–,> 100 µM,–,> 100 µM,–,> 100 µM,–,> 100 µM,–,> 100 µM,–,> 100 µM,–,> 100 µM,–,> 100 µM,–,> 100 µM
CC1(C)N([O-])[N+](=O)C1(C)O (stereo not drawn),–,> 100 µM,–,> 100 µM,–,> 100 µM,–,> 100 µM,–,> 100 µM,–,> 100 µM,–,> 100 µM,–,> 100 µM,–,> 100 µM,–,> 100 µM
CC(C)C(=O)/C=C/c1c(Cl)cccc1Cl,–,11.9 µM,–,> 100 µM,–,11.3 µM,–,11.7 µM,–,19.1 µM,–,16 µM,–,35.5 µM,–,22.4 µM,–,6.69 µM,–,9.23 µM
c1ccc2c(c1)-c1ccccc1C2NC1=NCCO1,–,33.2 µM,–,91.9 µM,–,> 100 µM,–,> 100 µM,–,38.9 µM,–,50.7 µM,–,34 µM,–,41 µM,–,32.5 µM,–,> 100 µM
COc1ccc2nc3cc(Cl)ccc3c(NCCCCCC(=O)NC(COc3ccc4ccc5cccnc5c4n3)COc3ccc4ccc5cccnc5c4n3)c2c1,–,85.5 µM,–,17.3 µM,–,47.9 µM,–,26.7 µM,–,56.4 µM,–,10.7 µM,–,31 µM,–,32.2 µM,–,57.7 µM,–,73.7 µM
COc1cc(OC)c(/C=N\Nc2nc3ccccc3c(=O)n2-c2ccccc2)c(OC)c1,–,> 31.6 µM,–,> 100 µM,–,> 100 µM,–,> 100 µM,–,55 µM,–,> 81.4 µM,–,41.1 µM,–,> 100 µM,–,84.6 µM,–,46.9 µM
O=C(Nc1ccc(Cl)cc1)c1cc(S(=O)(=O)N2CCNNC2=O)c(S)cc1Cl,–,> 100 µM,–,> 100 µM,–,> 100 µM,–,> 100 µM,–,> 100 µM,–,> 100 µM,–,> 100 µM,–,> 100 µM,–,> 100 µM,–,> 100 µM
Cn1c(=O)c2c(=O)cc(N)[nH]c2n(C)c1=O,–,> 100 µM,–,> 100 µM,–,> 100 µM,–,> 100 µM,–,> 100 µM,–,> 100 µM,–,> 100 µM,–,> 100 µM,–,> 100 µM,–,> 100 µM
O=CC1OC(=O)c2cc(O)c(O)c(O)c2-c2c(cc(O)c(O)c2O)C(=O)OC1C1OC(=O)c2cc(O)c(O)c(O)c2-c2c(O)c(O)c3oc(=O)c4c(c(O)c(O)c5oc(=O)c2c3c54)-c2c(cc(O)c(O)c2O)C(=O)OCC1O (stereo not drawn),–,> 100 µM,–,> 100 µM,–,> 100 µM,–,44.8 µM,–,> 100 µM,–,> 100 µM,–,> 100 µM,–,> 100 µM,–,> 100 µM,–,> 100 µM
C=C(C)[C@H]1CC(=O)[C@@]2(C)C[C@H]3O[C@]3(C)CC/C=C(\C)CC[C@H]12,–,54.6 µM,–,91.9 µM,–,> 100 µM,–,> 100 µM,–,74.1 µM,–,> 100 µM,–,73.9 µM,–,44.4 µM,–,–,–,> 100 µM
C#CCn1c(=O)ccn(/C(=C/C(=O)OCC)C(=O)OCC)c1=O,–,33.8 µM,–,> 24.6 µM,–,21.9 µM,–,35.4 µM,–,27.8 µM,–,25.3 µM,–,30.8 µM,–,–,–,11.8 µM,–,13.8 µM
